# US20190211102A1, “METHODS AND COMBINATION THERAPY TO TREAT CANCER” (Array BioPharma Inc., priority 2018, published 2019)
# Entries after “also recorded” stand apart in the source; their conditions may differ.
# How the values were obtained:
# [1] = plasma pharmacokinetics of ARRY-382, Phase 1b Part A (with pembrolizumab); type: in vivo, human
# CSF-1 = assay: pharmacodynamic analysis of circulating biomarkers: CSF-1 levels, Part A; type: in vivo, human
# advanced solid tumors = assay: preliminary antitumor activity by RECIST version 1.1 and irRC, Part A; type: in vivo, human; conditions: ARRY-382 300 mg cohort, with pembrolizumab
# From the text: Key eligibility criteria for Part A was adult patients with confirmed diagnosis of: bladder cancer, head and neck squamous cell cancer, ovarian cancer, triple-negative breast cancer, gastric cancer, metastatic colorectal cancer, or pancreatic ductal adenocarcinoma, refractory to standard of car, with no standard therapy available or for which the patient refused standard therapy; advanced, unresectable, or metastatic melanoma with or without prior treatment; or advanced/metastatic PD-L1-positive non-small cell lung cancer (NSCLC) meeting any of the following criteria: (1) tumors without EGFR or ALK genomic aberrations in patients who had received no prior systemic chemotherapy or had disease progression on or after platinum-containing chemotherapy, or (2) tumors with EGFR or ALK genomic aberrations in patients with disease progression on a US Food and Drug Administration-approved therapy for EGFR or ALK genomic tumor aberrations. Patients who received prior immune checkpoint inhibitor treatment were excluded from the study.
# DLTs were determined using standard definitions.
# [2] = Bendell et al. 2013, cited from earlier work
# [3] = Phase 1b dose escalation (Part A): DLTs, adverse events, RP2D of ARRY-382 with pembrolizumab
# Protocol: DLTs were determined using standard definitions. Adverse events (AEs) and serious AEs were collected to analyze the safety and tolerability of treatment. […] Blood samples for pharmacodynamics analysis of circulating biomarkers, including CSF-1, were collected on days 1, 8, and 15 of cycle 1 and on day 1 of all subsequent cycles.
# [4] = Part A, ARRY-382 + pembrolizumab
structure (smiles),measurement,setting,value
"Cc1cccc(Cn2nc(C3CC3)c3c(NC(=O)c4cnc5cc(OCCN6CCN(C)CC6)ccn45)cccc32)n1 [ARRY-382, N-(3-cyclopropyl-1-((6-methylpyridin-2-yl)methyl)-1H-indazol-4-yl)-7-(2-(4-methylpiperazin-1-yl)ethoxy)imidazo[1,2-a]pyridine-3-carboxamide]",exposure in the 300 mg versus 400 mg dose cohorts,[1]; 300 mg vs 400 mg QD,similar
same,dose proportionality of ARRY-382 exposure,"[1]; 200, 300, 400 mg QD with pembrolizumab",generally dose-proportional
same,PK interactions between ARRY-382 and pembrolizumab,"[1]; patients, Part A",no evidence of any PK interactions
same,"average maximum increase in CSF-1 levels from baseline, 300 mg versus 400 mg cohorts",CSF-1; 300 mg vs 400 mg cohorts,similar
same,average maximum increase in CSF-1 levels from baseline,CSF-1; ARRY-382 300 mg QD with pembrolizumab,5.4 fold
same,relation of increases from baseline in CSF-1 levels to ARRY-382 exposure,CSF-1; Part A,correlated with increasing ARRY-382 exposure
same,patients with stable disease per irRC,advanced solid tumors,3 patients
same,"stable disease per RECIST version 1.1, share of patients",advanced solid tumors,33%
same,"stable disease per irRC, share of patients",advanced solid tumors,50%
same,doses with biological activity,[2]; QD,greater than or equal to 200 mg
same,maximum tolerated dose (MTD),[2]; once daily (QD),400 mg
same,dose-limiting toxicities in the 200 mg cohort,"[3]; ARRY-382 200 mg QD + pembrolizumab, six patients",No DTLs occurred; also recorded: No DLTs occurred
same,patients who discontinued because of an AE of pneumonitis,"[3]; ARRY-382 200 mg cohort, onset in cycle 4",One
same,patients with dose reductions in the 300 mg cohort,[3]; ARRY-382 300 mg cohort,3 patients
same,patients who experienced a DLT in the 400 mg cohort,[3]; ARRY-382 400 mg QD + pembrolizumab,2 of 7 and Two of seven
same,course of AST and CK elevations after interruption of ARRY-382,[3]; Part A,resolved in all patients; also recorded: reversible
same,grade 4 events of increased blood CK,[3]; Part A,one
same,patients with AST elevation who required dose reduction,[3]; Part A,2 patients
same,patients with CK elevation who required dose reduction,[3]; Part A,3 patients
same,patients with immune-related adverse events (investigator-classified),[3]; Part A,5 patients
same,most common adverse events of any grade,"[3]; Part A, 19 patients, ARRY-382 + pembrolizumab","increased laboratory values (AST, CK, ALT, alkaline phosphatase (ALP), lipase, amylase), fatigue, pyrexia, and nausea"
same,most common grade 3/4 events (>10%),[3]; [4],"increased AST, increased CK, rash, lipase increased, increased ALP, increased ALT, and anemia"
same,patients with grade 3 AST elevation,[3]; [4],5 patients
same,on-study deaths (on treatment or within 30 days of last dose),"[3]; Part A, cause disease progression in all cases",3
same,recommended phase 2 dose (RP2D),"[3]; QD continuously, in combination with pembrolizumab 2 mg/kg IV every 3 weeks",300 mg
same,"immune-related adverse events, manageability",[3]; regardless of relationship to study drug,observed and were manageable
